Measured values: ChEMBL document CHEMBL1201862, “PubChem BioAssay data set” (2004)
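Assay format: 96-well plates, 48-hour exposure. GI50 is the concentration that inhibits growth by half.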 The source made the active and inactive calls. No stated cut-off is given here; in the data, active = GI50 up to about 1.1 µM and inactive = higher.

Tests used:
Assay in all cases: NCI anticancer screen, dose series, 48 h
HCT-116 = system: HCT-116
EKVX = system: EKVX
HOP-62 = system: HOP-62
PC-3 = system: PC-3
SK-MEL-28 = system: SK-MEL-28
T47D = system: T47D
M14 = system: M14
IGROV-1 = system: IGROV-1
HT-29 = system: HT-29
SF-268 = system: SF-268
MCF7 = system: MCF7
SK-MEL-5 = system: SK-MEL-5
SF-295 = system: SF-295
OVCAR-4 = system: OVCAR-4
NCI-H226 = system: NCI-H226
SR = system: SR
SK-OV-3 = system: SK-OV-3
Malme-3M = system: Malme-3M
Hs-578T = system: Hs-578T

Measured: GI50

O=c1c2cc(I)ccc2nc(-c2cccs2)n1/N=C/c1ccccc1
inactive: HCT-116 > 100 µM | EKVX > 100 µM | HOP-62 > 100 µM | PC-3 > 100 µM | SK-MEL-28 > 100 µM | T47D 80.5 µM | M14 > 100 µM | IGROV-1 > 100 µM | HT-29 > 100 µM | SF-268 > 100 µM | MCF7 > 100 µM | SK-MEL-5 > 100 µM | SF-295 > 100 µM | OVCAR-4 > 100 µM | NCI-H226 > 100 µM | SR 10.1 µM | SK-OV-3 > 100 µM

NC1=NC2=c3ccccc3=C(c3cnccn3)C2(c2cnccn2)c2ccccc21 (configuration not stated)
inactive: HCT-116 76.9 µM | EKVX 44.7 µM | HOP-62 > 100 µM | SK-MEL-28 > 100 µM | M14 > 100 µM | Malme-3M 49.9 µM | IGROV-1 > 100 µM | HT-29 89.5 µM | SF-268 74.1 µM | SK-MEL-5 34 µM | SF-295 42.2 µM | OVCAR-4 42.4 µM | NCI-H226 34.7 µM | SR 39.5 µM | SK-OV-3 > 100 µM

Nc1nc(N)c(/N=N/c2ccc(C(=O)O)c(O)c2)c(N)n1
inactive: Hs-578T > 100 µM | HCT-116 > 100 µM | EKVX 91.6 µM | HOP-62 > 100 µM | PC-3 > 100 µM | SK-MEL-28 > 100 µM | M14 > 100 µM | Malme-3M > 100 µM | IGROV-1 > 100 µM | HT-29 > 100 µM | SF-268 > 100 µM | MCF7 61.4 µM | SK-MEL-5 > 100 µM | SF-295 > 100 µM | OVCAR-4 18.5 µM | NCI-H226 > 100 µM | SR > 100 µM | SK-OV-3 > 100 µM

CN=[S+]([O-])(c1ccccc1)c1ccccc1
inactive: HCT-116 > 100 µM | EKVX > 100 µM | HOP-62 > 100 µM | SK-MEL-28 > 100 µM | M14 > 100 µM | Malme-3M > 100 µM | IGROV-1 > 100 µM | HT-29 > 100 µM | SF-268 > 100 µM | SK-MEL-5 > 100 µM | SF-295 > 100 µM | OVCAR-4 > 100 µM | NCI-H226 > 100 µM | SR > 100 µM | SK-OV-3 > 100 µM

NC(Cc1ccc(O)c(O)c1)P(=O)(O)O (configuration not stated)
inactive: HCT-116 > 100 µM | PC-3 > 100 µM | SK-MEL-28 > 100 µM | T47D 18 µM | M14 > 100 µM | Malme-3M 81.5 µM | IGROV-1 > 100 µM | HT-29 > 100 µM | SF-268 > 100 µM | MCF7 > 10 µM | SK-MEL-5 > 100 µM | SF-295 > 100 µM | OVCAR-4 > 100 µM | NCI-H226 > 100 µM | SR 91.8 µM

COC(=O)CCC12CCC(O1)c1ccccc12 (configuration not stated)
inactive: HCT-116 > 100 µM | EKVX > 100 µM | HOP-62 > 100 µM | PC-3 > 100 µM | SK-MEL-28 > 100 µM | T47D > 100 µM | M14 > 100 µM | IGROV-1 > 100 µM | HT-29 > 100 µM | MCF7 > 100 µM | SK-MEL-5 > 100 µM | SF-295 > 100 µM | OVCAR-4 > 100 µM | NCI-H226 > 100 µM | SR > 100 µM | SK-OV-3 > 100 µM

COc1ccc(C23OCC(Cc4cc(OC)c(OC)cc42)C3COC(C)=O)cc1OC (configuration not stated)
inactive: HCT-116 > 100 µM | EKVX > 100 µM | HOP-62 > 100 µM | PC-3 > 100 µM | SK-MEL-28 > 100 µM | T47D > 100 µM | M14 > 100 µM | Malme-3M > 100 µM | HT-29 > 100 µM | SF-268 > 100 µM | MCF7 > 100 µM | SK-MEL-5 20.7 µM | SF-295 > 100 µM | OVCAR-4 > 100 µM | NCI-H226 5.66 µM | SR 27.4 µM | SK-OV-3 > 100 µM

O=C(CN1CCCC1)Nc1ccc2c(c1)C1Oc3ccccc3CC1CO2 (configuration not stated)
inactive: HCT-116 33 µM | EKVX 69.3 µM | HOP-62 19.7 µM | PC-3 24.8 µM | T47D 40.1 µM | M14 20.1 µM | Malme-3M 16.7 µM | IGROV-1 36.6 µM | HT-29 > 10 µM | SF-268 67 µM | MCF7 17.3 µM | SK-MEL-5 14.6 µM | SF-295 20.5 µM | NCI-H226 > 100 µM | SR 33.3 µM | SK-OV-3 > 100 µM

CCOC1=C/C(=N\Nc2ccc([N+](=O)[O-])cc2)CCC1
inactive: Hs-578T 38.5 µM | HCT-116 41.7 µM | EKVX 87.9 µM | HOP-62 37.5 µM | PC-3 53.6 µM | SK-MEL-28 23.2 µM | M14 49.4 µM | Malme-3M 96.2 µM | IGROV-1 15 µM | HT-29 14.6 µM | SF-268 11.3 µM | MCF7 18.3 µM | SK-MEL-5 18.9 µM | SF-295 13.1 µM | OVCAR-4 13.8 µM | NCI-H226 41.9 µM | SR 4.53 µM | SK-OV-3 44.7 µM
